In one data set the test system is Trypanosoma cruzi. As to the kind of experiment: Antitrypanosomal activity against Trypanosoma cruzi. The data set is classed as functional, organism-based.
The subject of the next data set is Plasmodium falciparum. Put plainly: Antiplasmodial activity against Plasmodium falciparum NF54. Format: functional, organism-based.
Data set [1] in a line: Cytotoxicity against rat L6 cells assessed as reduction in cell viability by resazurin dye based assay. The data set is classed as toxicity. Background: Alamar Blue is a resazurin reagent that responds to reducing activity.
For the next data set, the system named is Leishmania donovani. Put plainly: Antileishmanial activity against Leishmania donovani. The data set is classed as functional, organism-based.
The test system of the next data set is ADR5000 cell line. As to the kind of experiment: Cytotoxicity against multidrug resistant human CEM/ADR5000 cells. Format: functional, cell-based.
A short description of data set [2]: Selectivity index, ratio of IC50 for rat L6 cells to IC50 for Plasmodium falciparum NF54. The data set is classed as toxicity. The conditions noted are these: L6 cells versus Plasmodium falciparum NF54, read-out: Ratio IC50.
Data set [3] in a line: Selectivity ratio of IC50 for human CEM/ADR5000 cells to IC50 for human CCRF-CEM cells. Format: functional.
Data set [4] deals with Trypanosoma brucei rhodesiense. Put plainly: Antitrypanosomal activity against Trypanosoma brucei rhodesiense. The data set is classed as functional, organism-based.
The subject of another data set is CCRF-CEM. Put plainly: Cytotoxicity against human CCRF-CEM cells. Format: functional, cell-based.

Here are results for two compounds from ChEMBL document CHEMBL5252643, “Jozibrevine D from Ancistrocladus ileboensis, the fifth alkaloid in a series of six possible atropo-diastereomeric naphthylisoquinoline dimers, showing antiparasitic and antileukemic activities” (Bioorg Med Chem Lett, 2023).

As a reminder, the IC50 is the concentration needed to halve the response being measured. Turning to `COc1cccc2c(-c3ccc4c(c3O)[C@@H](C)N[C@H](C)C4)c(C)c(-c3c(C)c(-c4ccc5c(c4O)[C@@H](C)N[C@H](C)C5)c4cccc(OC)c4c3O)c(O)c12` (stereo in doubt; 4e), the IC50 with Trypanosoma cruzi was 22.2 µM; in the data set with Plasmodium falciparum it was 0.137 µM; in [1], 6.22 µM; with Leishmania donovani, 105 µM; in the data set on ADR5000 cell line, 16.6 µM; in [4] it was 0.527 µM. Also, the IC50 in the data set with CCRF-CEM came to 11.5 µM. Also, the selectivity ratio in data set [2] came out at 45.4. In [3], the “Ratio IC50” value worked out at 1.45.

With `COc1cccc2c(-c3ccc4c(c3O)[C@@H](C)N[C@H](C)C4)c(C)c(-c3c(C)c(-c4ccc5c(c4O)[C@@H](C)N[C@H](C)C5)c4cccc(OC)c4c3O)c(O)c12` (stereo in doubt; 4d), the IC50 in the data set with ADR5000 cell line is 7.59 µM; in the data set with CCRF-CEM, 5.35 µM. For the same compound, in data set [3], the “Ratio IC50” value was found to be 1.42.
